Assay results reported in article PMC8151276, “An Integrated Approach toward NanoBRET Tracers for Analysis of GPCR Ligand Engagement” (Molecules, 2021).

How the values were obtained:
ADRB2 = target: T1, ADRB2 (Homo sapiens, UniProt P07550); test: NanoBRET screen HiBiT-ADRB2 in HEK293; assay type: binding
T1 construct: purchased Promega (in-house HiBiT-GPCR construct library, NanoBRET)
Description: (§1) Each tracer candidate was screened across the entire library of HiBiT-GPCR constructs using NanoBRET as the detection modality. As depicted in Figure 4A, the specificity of interactions was evaluated through decrease in BRET due to competitive displacement of a bound tracer by excess parental compound. Each tracer was analyzed for binding to each HiBiT-GPCR fusion in the absence and in the presence of competing parental compound. Briefly, HEK293 cells were transfected with HiBiT-GPCR constructs diluted into promoterless DNA to reduce expression and maximize translocation to the cell surface. Each tracer candidate was then screened at concentrations of 1 μM and 0.1 μM across cells expressing these fusions. Cells were treated for 1.5 h with tracer either alone or in the presence of 20 μM competing parental compound (i.e., control). BRET was measured upon addition of purified LgBiT and subsequent complementation with HiBiT genetically fused to a GPCR. The specificity of interactions was assessed through a decrease in BRET signal due to competitive displacement of the bound tracer. To further gauge the robustness of these interactions, the fold response over the control (i.e., BRETtracer/BRETcontrol) was calculated. We chose a 1.5-fold response, which translates to ≥7-fold signal over noise as the minimal threshold required to score an interaction as positive.
(§2) HiBiT-GPCR DNA constructs were diluted in 10 mM Tris pH 8 to a final concentration of 0.01 μg/μL, arrayed in 96-well plates and stored at −20 °C. For transfection, HEK293 cells were suspended in Opti-MEM (without phenol red) supplemented with 2% fetal bovine serum (Seradigm) and 100 units/mL penicillin–streptomycin (Gibco) at a final concentration of 220,000 cells/mL and dispensed into white 96-well plates at 90 μL/well. Subsequent transfections and screens were carried using an Agilent Bravo Automated Liquid Handling Platform. First, the 96-well HiBiT DNA arrays were diluted 25-fold in Opti-MEM (without serum or phenol red) to a final concentration of 0.0004 μg/μL and 20 μL of the diluted DNAs were transferred into new 96-well plates. Next, promoterless carrier DNA (1 μg/μL) was diluted 25-fold (0.04 μg/μL) and then dispensed into the diluted arrays at 20 μL/well. Following brief mixing, Viafect transfection reagent (Promega) diluted 16-fold into Opti-MEM was dispensed into the plates at 40 μL/well. After mixing by pipetting, plates were incubated for 10 min on the pipetting station deck. The DNA-transfection reagent complexes were then added to plates containing cells. To facilitate the screen, 10 μL of DNA-transfection reagent complexes were added in duplicates to the top 4 and bottom 4 rows, resulting in two identical 48-well arrays per plate. Plates with transfected cells were incubated for 18–20 h at 37 °C/5% CO2. A screen of each tracer across the entire library using two different concentrations requires duplicate plates of transfected cells. Depending on the number of tracers being screened, transfections can be scaled up using the same ratios. The next day, for each tracer, four 20× screening solutions in tracer dilution buffer (Promega) were prepared: two duplicates at final concentration of 20 μM and two duplicates at a final concentration of 2 μM. […] The four resulting solutions were diluted 4-fold in Opti-MEM without serum or phenol red to generate 5× solutions (5 µM and 0.5 µM tracer +/− 100 μM competing compound). To screen the library, a BioTek MultiFlo FX liquid dispenser was used to dispense 22.5 µL of tracer solution to the top 4 rows and 22.5 µL tracer + competing compound solution to the 4 bottom rows. Plates were briefly mixed on an orbital shaker and incubated for 1.5 h at room temperature. […] Plates were briefly mixed on an orbital shaker and incubated for 15 min to allow complementation.

HTR1A = target: T2, HTR1A (Homo sapiens, UniProt P08908); test: NanoBRET screen HiBiT-HTR1A in HEK293; assay type: binding
T2 construct: purchased Promega (in-house HiBiT-GPCR construct library, NanoBRET)
T2 sequence (P08908 1-422): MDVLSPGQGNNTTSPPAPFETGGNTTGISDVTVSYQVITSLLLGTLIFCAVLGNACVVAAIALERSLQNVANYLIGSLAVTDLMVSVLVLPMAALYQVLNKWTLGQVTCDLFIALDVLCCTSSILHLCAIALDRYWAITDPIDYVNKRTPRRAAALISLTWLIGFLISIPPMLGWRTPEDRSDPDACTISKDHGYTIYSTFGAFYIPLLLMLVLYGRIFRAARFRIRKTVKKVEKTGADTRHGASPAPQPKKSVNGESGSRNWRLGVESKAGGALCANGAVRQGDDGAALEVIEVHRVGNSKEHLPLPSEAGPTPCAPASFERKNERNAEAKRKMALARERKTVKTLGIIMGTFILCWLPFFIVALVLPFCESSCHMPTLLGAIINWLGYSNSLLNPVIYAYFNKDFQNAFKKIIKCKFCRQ
Description: as §1, §2

[1] = tracer at 0.1μM, listed as amitriptyline-b-2-NB590
[2] = tracer at 1μM, listed as amitriptyline-b-2-NB590

T1 sequence (P07550 whole entry): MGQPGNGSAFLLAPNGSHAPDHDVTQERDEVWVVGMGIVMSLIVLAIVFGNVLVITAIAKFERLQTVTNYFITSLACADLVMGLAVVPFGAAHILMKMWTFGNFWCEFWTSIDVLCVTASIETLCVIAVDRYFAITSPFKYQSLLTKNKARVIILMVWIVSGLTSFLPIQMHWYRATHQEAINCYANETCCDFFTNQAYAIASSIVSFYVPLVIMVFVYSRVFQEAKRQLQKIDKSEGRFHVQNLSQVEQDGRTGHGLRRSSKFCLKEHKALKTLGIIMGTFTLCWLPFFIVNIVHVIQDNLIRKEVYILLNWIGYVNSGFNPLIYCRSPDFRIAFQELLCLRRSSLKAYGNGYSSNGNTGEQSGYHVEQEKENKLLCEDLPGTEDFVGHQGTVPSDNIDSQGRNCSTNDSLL

Compound | NanoBRET Fold Response (ADRB2; ADRB2, tracer 0.1μM) | NanoBRET Fold Response (ADRB2; ADRB2, tracer 1μM) | NanoBRET Fold Response (HTR1A; HTR1A, tracer 0.1μM) | NanoBRET Fold Response (HTR1A; HTR1A, tracer 1μM) | further results
COc1ccc2c(n1)c(CCNC(C)=O)cn2CCNC(=O)CCc1ccc2n1[B-](F)(F)[N+]1=C(c3ccc[nH]3)C=CC1=C2 [Azamelatonin-1-NB590] | – | – | – | – | NanoBRET Fold Response (ADRB2; 0.1μM tracer): 0.97; NanoBRET Fold Response (ADRB2; 1μM tracer): 0.90; NanoBRET Fold Response (HTR1A; 0.1μM tracer): 1.02; NanoBRET Fold Response (HTR1A; 1μM tracer): 1.02
CC(C)N(CC[C@H](c1ccccc1)c1cc(CCNC(=O)c2ccc(CNC(=O)CCc3ccc4n3[B-](F)(F)[N+]3=C(c5ccc[nH]5)C=CC3=C4)cc2)ccc1O)C(C)C [Tolterodine-BZ-NB590] | 1.04 | 1.19 | 1.03 | 1.12 | –
O=C(CCc1ccc2n1[B-](F)(F)[N+]1=C(c3ccc[nH]3)C=CC1=C2)NCCOCCOCCNC(=O)OCCOCCN1CCN(C2=Nc3ccccc3Sc3ccccc32)CC1 [Quetiapine-a-2-NB590] | 1.13 | 0.97 | 1.09 | 1.04 | –
Cc1cc2c(s1)Nc1ccccc1N=C2N1CCN(CCCNC(=O)CCOCCOCCOCCOCCNC(=O)CCc2ccc3n2[B-](F)(F)[N+]2=C(c4ccc[nH]4)C=CC2=C3)CC1 [Olanzapine-a-2-NB590] | 1.01 | 1.15 | 0.99 | 1.06 | –
O=C(CCc1ccc2n1[B-](F)(F)[N+]1=C(c3ccc[nH]3)C=CC1=C2)NCc1ccc(C(=O)NCCOCCOCCNCC(O)COc2cccc3ccccc23)cc1 (stereo not shown) [Propranolol-3-NB590] | – | – | – | – | NanoBRET Fold Response (HTR1A; HTR1A, 0.1μM): 1.38; NanoBRET Fold Response (HTR1A; HTR1A, 1μM): 1.39
N#CN/C(=N\CCNC(=O)c1ccc(N)cc1)NCCCOc1cccc(CN2CCCCC2)c1 [Aminopotentidine (unmodified)] | – | – | – | – | NanoBRET Fold Response (ADRB2; ADRB2, other tracers/Aminopotentidine (unmodified), 0.1μM): 1.00; NanoBRET Fold Response (ADRB2; ADRB2, other tracers/Aminopotentidine (unmodified), 1μM): 1.04; NanoBRET Fold Response (HTR1A; HTR1A, other tracers/Aminopotentidine (unmodified), 0.1μM): 1.28; NanoBRET Fold Response (HTR1A; HTR1A, other tracers/Aminopotentidine (unmodified), 1μM): 1.69
CN1CCN(C2=Nc3cc(Cl)ccc3N(CC(=O)NCCOCCOCCOCCOCCNC(=O)CCc3ccc4n3[B-](F)(F)[N+]3=C(c5ccc[nH]5)C=CC3=C4)c3ccccc32)CC1 [Clozapine-c-2-NB590] | – | – | – | – | NanoBRET Fold Response (ADRB2; ADRB2, 0.1μM tracer): 0.99; NanoBRET Fold Response (ADRB2; ADRB2, 1μM tracer): 1.02; NanoBRET Fold Response (HTR1A; HTR1A, 1μM tracer): 1.12
O=C(CCc1ccc2n1[B-](F)(F)[N+]1=C(c3ccc[nH]3)C=CC1=C2)NCc1ccc(C(=O)NCCOCCC(=O)N[C@@H]2CC[C@@]3(O)[C@H]4Cc5ccc(O)c6c5[C@@]3(CCN4CC3CC3)[C@H]2O6)cc1 [Naltrexone-3-NB590] | 1.36 | 0.89 | 0.94 | 1.03 | –
CC(C)N(CC[C@H](c1ccccc1)c1cc(CCNC(=O)CCOCCOCCOCCOCCNC(=O)CCc2ccc3n2[B-](F)(F)[N+]2=C(c4ccc[nH]4)C=CC2=C3)ccc1O)C(C)C [Tolterodine-2-NB590] | 0.93 | 1.03 | 1.14 | 1.06 | –
Cc1nc2n(c(=O)c1CCN1CCC(c3noc4cc(F)ccc34)CC1)CCCC2OC(=O)NCCOCCOCCOCCOCCNC(=O)CCc1ccc2n1[B-](F)(F)[N+]1=C(c3ccc[nH]3)C=CC1=C2 (stereo not shown) [Risperidone-2-NB590] | 0.97 | 0.98 | 1.24 | 1.15 | –
O=C(CCOCCOCCOCCOCCNC(=O)CCc1ccc2n1[B-](F)(F)[N+]1=C(c3ccc[nH]3)C=CC1=C2)NCCCN1CCN(C2=Nc3cc(Cl)ccc3Nc3ccccc32)CC1 [Clozapine-a-2-NB590] | – | – | – | – | NanoBRET Fold Response (ADRB2; ADRB2, 0.1μM tracer): 1.09; NanoBRET Fold Response (ADRB2; ADRB2, 1μM tracer): 1.10; NanoBRET Fold Response (HTR1A; HTR1A, 0.1μM tracer): 1.16; NanoBRET Fold Response (HTR1A; HTR1A, 1μM tracer): 0.98
COc1ccc2[nH]c(-c3ccc(CNC(=O)CCOCCOCCOCCOCCNC(=O)CCc4ccc5n4[B-](F)(F)[N+]4=C(c6ccc[nH]6)C=CC4=C5)cc3)c(CCNC(C)=O)c2n1 [AzomelatoninICO9-2-NB590] | – | – | – | – | NanoBRET Fold Response (ADRB2; 0.1μM tracer): 0.94; NanoBRET Fold Response (ADRB2; 1μM tracer): 0.99; NanoBRET Fold Response (HTR1A; 0.1μM tracer): 0.95; NanoBRET Fold Response (HTR1A; 1μM tracer): 1.15
CN1CCN(C2=Nc3cc(Cl)ccc3Nc3ccc(CNC(=O)CCOCCOCCOCCOCCNC(=O)CCc4ccc5n4[B-](F)(F)[N+]4=C(c6ccc[nH]6)C=CC4=C5)cc32)CC1 [Clozapine-b-2-NB590] | – | – | – | – | NanoBRET Fold Response (ADRB2; ADRB2, 0.1μM tracer): 1.01; NanoBRET Fold Response (ADRB2; ADRB2, 1μM tracer): 0.93; NanoBRET Fold Response (HTR1A; HTR1A, 0.1μM tracer): 0.98; NanoBRET Fold Response (HTR1A; HTR1A, 1μM tracer): 1.21
COc1ccccc1N1CCN(CCCCN2C(=O)c3ccc(CNC(=O)CCOCCNC(=O)c4ccc(CNC(=O)CCc5ccc6n5[B-](F)(F)[N+]5=C(c7ccc[nH]7)C=CC5=C6)cc4)cc3C2=O)CC1 [NAN-190-3-NB590] | 1.00 | 1.45 | – | 1.70 | –
N#CN=C(NCCCOc1cccc(CN2CCCCC2)c1)NCCNC(=O)CCOCCOCCOCCOCCNC(=O)CCc1ccc2n1[B-](F)(F)[N+]1=C(c3ccc[nH]3)C=CC1=C2 [Aminopotentidine-2-NB590] | 1.05 | 1.02 | 1.04 | 0.98 | –
CN(C)CCC=C1c2ccccc2CCc2ccc(C(=O)NCCNC(=O)CCOCCOCCOCCOCCNC(=O)CCc3ccc4n3[B-](F)(F)[N+]3=C(c5ccc[nH]5)C=CC3=C4)cc21 [Amitriptyline-b-2-NB590] | – | – | – | – | NanoBRET Fold Response (ADRB2; [1]): 1.08; NanoBRET Fold Response (ADRB2; [2]): 0.96; NanoBRET Fold Response (HTR1A; [1]): 1.19; NanoBRET Fold Response (HTR1A; [2]): 1.02
COc1ccccc1N1CCN(CCCCN2C(=O)c3ccc(CNC(=O)CCOCCOCCOCCOCCNC(=O)CCc4ccc5n4[B-](F)(F)[N+]4=C(c6ccc[nH]6)C=CC4=C5)cc3C2=O)CC1 [NAN-190-2-NB590] | 1.25 | 1.66 | 2.15 | 1.76 | –
